Legend:
[1] = maximal tolerated dose of Rhodamine 123 delivered intravenously in man; format: in vivo; settings: 70 kg patient, each injection
Description: Because inhibitors of oxidative phosphorylation are toxic to a subject in the doses needed for efficacy via the systemic route, such inhibitors have been largely overlooked for effective treatment of conditions such as cancer. […] It is also known that the maximal tolerated dose of Rhodamine 123 delivered intravenously in man is 95 mg/m^2. For a 70 kg patient, the tolerated dose of systemically delivered rhodamine is about 150 mg for each injection.

[2] = tested on: tumour; assay: local delivery of rhodamine on an implant; format: in vivo; settings: delivering 40 or 50 mg locally on implant
From the text: Furthermore, the lethal dose can be greatly exceeded. […] Such a dose, delivered systemically, would require 100 g of rhodamine, more than 1000 times the lethal dose.

[3] = tested on: prostate tumours; settings: clinical trial, cited from earlier work

For rhodamine, the “tolerated dose of systemically delivered rhodamine” value [1] is given as “about 150 mg”, the tumour outcome [2] is given as “leads to tumour death” and the “effect on prostate tumours” value ([3]; maximum non-lethal systemic doses) is given as “did not shown any significant effect”. For the same substance, the “accumulation in the prostate of the patients” value ([3]; systemic delivery) was “accumulation was confirmed”.
